Columns and labels:
Type in all cases: cell-based
[1] = test system: human red blood cell (RBC); experiment: Human RBC survival in vitro in RPMI 1640, viable/dead cells by flow cytometry (FSC/SSC); conditions: for protecting effect on RBCs (survival versus vehicle control): 100 μM, RPMI 1640; for RBC survival as compared to RBCs cultured in the presence of buffer only: 7 days at 37° C., 1, 10, 100 μM tested (FIG. 13)
Description: RBCs were incubated in vitro at 37° C., and cells were analyzed by flow cytometry for assessment of the relative proportions of dead and viable cells. Forward scatter (FSC)/side scatter (SSC) dot plots of RBCs incubated in the presence or absence of 5-HT (100 μM) are shown in (A) to (E) for the indicated time points. Two main regions of analysis are set, R1 (left box) and R2 (right box), corresponding to dead and viable RBCs, respectively. The proportion of viable cells remaining at each time-point is indicated next to the R2 region (upper right in the dot plots). (F) Typical concentration-dependent effects of 5-HT (0-100 μM) on RBCs incubated for different periods of time;
RBCs were incubated for various lengths of time in the RPMI 1640 medium at 37° C. (A), at room temperature (21 to 23° C.) (B), or at 4° C. (C). 5-HT (100 μM, black circles) or vehicle control (white circles) was added before incubation at Day 0, and cell viability was assessed by flow cytometry at several times as indicated;
RBCs were incubated for 7 days at 37° C. in the presence or absence of different concentrations of the indicated indole compounds (white bars =1 μM; grey bars=10 μM; black bars:100 μM). As a control, RBCs were incubated in the presence of the appropriate buffer (without the compounds). RBCs survival in the presence of a given compound is expressed as the percentage of survival relative to the control.
Red blood cells isolation. Venous blood was drawn from healthy volunteers, and RBCs were isolated by centrifugation at 800 rpm to remove platelet-rich plasma, and white blood cells. The resulting pellet of RBCs was washed three times in NaCl 0.9% by centrifugation at 3000 rpm. RBCs were incubated at 37° C., 5% CO2 in 24-well microplates at a concentration of 1x10^6 cells/ml in RPMI 1640 medium without phenol red containing HEPES/NaOH (pH 7.4) and penicillin (100 U/ml)/streptomycin ([…]).
(§1) Cell culture. Drugs [serotonin (Catalog No. H9525), melatonin (Catalog No. M5250), pindolol (Catalog No. P0778) and indomethacin (Catalog No. 18280)] were all purchased from Sigma-Aldrich. They were added at the indicated concentrations at the beginning of cell incubation (Day 0). Cells were harvested at specific time-points and analyzed by flow cytometry (FACScan™, Becton Dickinson) according to forward and side scatters (FSC and SSC, respectively). FSC is proportional to cell size, while SSC is proportional to cell complexity, which may reflect hemoglobin content of RBCs. The relative proportions of viable and dead RBCs were calculated by setting appropriate regions on the dot plots. In some experiments, RBCs were sorted according to FSC and SSC. Cell density was checked routinely by inverted light microscopy, and cell morphology was assessed by May Grünwald-Giemsa staining followed by light microscopy.

human RBCs [2] = experiment: RBC density and morphology by May Grünwald-Giemsa staining and light microscopy
Description: (C). Cells were incubated in the presence or absence of 5-HT. The density of RBC suspension and their morphology were assessed by May Grünwald-Giemsa staining;
as §1
To evaluate the morphology of the two populations of RBCs, these cells were sorted by flow cytometry according to their FSC/SSC characteristics, and stained by the May Grünwald-Giemsa method. […] Cells with intermediate amounts of hemoglobin (between normochromic and hypochromic) were also present in the R2 region (FIG. 2, upper right panel). […] At day 7, in the absence of 5-HT, fewer cells were present, and the majority of these cells were hypochromic with cytoplasmic inclusions (FIG. 3B, left panels).

human RBCs [3] = experiment: Survival of human RBCs cultured in AS-3 additive solution, flow cytometry; conditions: 100 μM
Description: AS-3 is an additive solution commonly used for storage of RBCs. RBCs were incubated in home-made (A) and commercially available (B) AS-3 solution (Haemonetics, Catalog No. 0460a-00) for various lengths of time at 4° C. in the absence (white circles) or presence (100 μM, black circles) of 5-HT, and cell viability was assessed by flow cytometry at several times as indicated. The home-made AS-3 was prepared in sterile water as follows: Sodium chloride (NaCl, 2.35 g), D-Glucose (Dextrose, 5.5 g), Adenine (0.15 g), Citric Acid (0.21 g), Sodium Phosphate dibasic (Na2HPO4 anhydrous, 1.380 g) were dissolved in 500 ml of sterile water. The pH of the solution was adjusted at 7.39;
as §1, with “They were added at the indicated concentrations at the beginning of cell incubation (Day 0).” left out, “FSC is proportional to cell size, while SSC is proportional to cell complexity, which may reflect hemoglobin content of RBCs.” left out, “In some experiments, RBCs were sorted according to FSC and SSC.” left out
The effect of 5-HT on the survival of human RBCs cultured in AS-3 solution was assessed. […]

mouse RBCs = experiment: Survival of mouse RBCs cultured at 37° C., flow cytometry; conditions: day 1 to day 7, 0-100 μM
Description: Mouse RBCs were cultured at 37° C. for the indicated periods of time, in the presence of increasing concentrations of 5-HT (0-100 μM). Cell viability was assessed by flow cytometry at day 1 (A), day 2 (B), day 3 (C), day 5 (D) and day 7 (E), and the percentage of viable cells (% of cells in R2) is indicated;
as §1, with “microscopy. […]” for “microscopy.”

NCCc1c[nH]c2ccc(O)cc12 [5-HT, serotonin]
concentration giving optimal effect on RBC viability ([1]; 0-100 μM tested, 37° C., FIG. 1F): 100 µM
protecting effect on RBCs (survival versus vehicle control) ([1]; 4° C.): is observed
protecting effect on RBCs (survival versus vehicle control) ([1]; 37° C.): is observed
percentage of viable RBCs as compared to controls without 5-HT ([1]; all time-points (day 0 to 21), 37° C., 5-HT 100 μM): higher
protecting effect on RBCs (survival versus vehicle control) ([1]; room temperature (21-23° C.)): is observed
RBC morphology (normochromic / hypochromic) (human RBCs [2]; 91 days at 4° C.): normochromic red blood cells are observed
RBC morphology (normochromic / hypochromic) (human RBCs [2]; day 7, 37° C.): the majority of these cells were normochromic
number of cells remaining, as judged by cell density (human RBCs [2]; day 7, 37° C., versus absence of 5-HT): a greater number of cells remained
survival of RBCs versus absence of 5-HT (human RBCs [3]; commercially available AS-3, 4° C.): increases the survival
survival of RBCs versus absence of 5-HT (human RBCs [3]; home-made AS-3, 4° C.): increases the survival
proportion of viable mouse RBCs versus 5-HT-free cultures (mouse RBCs): higher

COc1ccc2c(c1)c(CC(=O)O)c(C)n2C(=O)c1ccc(Cl)cc1 [indomethacin]
RBC survival as compared to RBCs cultured in the presence of buffer only [1]: increased survival

COc1ccc2[nH]cc(CCNC(C)=O)c2c1 [melatonin]
RBC survival as compared to RBCs cultured in the presence of buffer only [1]: increased survival

CC(C)NCC(O)COc1cccc2[nH]ccc12 (centres unmarked) [pindolol]
RBC survival as compared to RBCs cultured in the presence of buffer only [1]: increased survival

— patent publication US10165772B2, “Methods and compounds for increasing red blood cell survival” (priority 2008, dated 2019)
